Biological target: SGK1 (human) (UniProt O00141)
Experiment: Flashplate

Chain of SGK1 (human) (O00141 whole entry, looked up): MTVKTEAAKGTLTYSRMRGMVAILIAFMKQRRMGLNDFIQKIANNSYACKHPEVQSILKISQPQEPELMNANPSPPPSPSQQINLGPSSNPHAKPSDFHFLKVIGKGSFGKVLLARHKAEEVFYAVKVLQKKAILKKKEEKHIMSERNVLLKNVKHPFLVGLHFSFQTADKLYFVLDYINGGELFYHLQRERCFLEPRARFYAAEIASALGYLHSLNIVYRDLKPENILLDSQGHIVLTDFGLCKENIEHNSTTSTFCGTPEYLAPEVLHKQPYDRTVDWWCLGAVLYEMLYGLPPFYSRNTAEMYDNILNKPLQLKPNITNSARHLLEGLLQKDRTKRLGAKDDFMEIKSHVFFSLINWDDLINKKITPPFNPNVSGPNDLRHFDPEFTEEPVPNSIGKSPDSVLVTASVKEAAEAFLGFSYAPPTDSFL

SMILES | Ki
O=C(Nc1cnccn1)Nc1ccnc2c(C(F)(F)F)cccc12 | > 10 µM
COc1cc(-c2ccc3c(c2)Nc2ccc(C(=O)NCc4cccc(F)c4)cc2NC3=O)ccc1O | > 10 µM
COc1cc(Nc2ncc3c(n2)-c2ccc(Cl)cc2C(c2c(F)cccc2OC)=NC3)ccc1C(=O)O | > 10 µM
O=C(NNC(=S)Nc1ccc(Cl)cc1)C(O)(c1ccccc1)c1ccccc1 | > 10 µM
Cc1cccc(NC(=O)Nc2ccc(-c3cccc(C(N)=O)c3)cc2)c1 | > 10 µM
Nc1ncnc2scc(-c3ccc(NC(=O)Nc4ccccc4)cc3)c12 | 3.98 µM
COc1cc2c(Oc3ccc4[nH]c(C)cc4c3F)ncnc2cc1OCCCN1CCCC1 | > 10 µM
CC(=O)Nc1cc(N)c(C#N)c(-c2ccccc2)n1 | > 10 µM
CCOc1nc(NC(=O)Cc2cc(OC)c(S(C)(=O)=O)cc2OC)cc(N)c1Cl | > 10 µM
COc1cc(Nc2ncc(F)c(Nc3ccc4c(n3)NC(=O)C(C)(C)O4)n2)cc(OC)c1OC | > 7.94 µM
O=C(O)c1c2c(nc3ccccc13)C(=C1CCCC1)CC2 | > 10 µM
O=C(NCc1ccc(Cl)cc1)c1cc2c(-c3ccccc3)n[nH]c2s1 | 1 µM
CN(C)CC(C)(C)CNc1nccc(-c2c(-c3ccc(F)cc3)nc3occn23)n1 | > 10 µM
COC(=O)c1cc2c(-c3cccc(F)c3)cncc2s1 | > 10 µM
O=C(Nc1cccc(C(F)(F)F)n1)Nc1ccnc2c(Cl)cccc12 | > 10 µM
Cc1cccc(Nc2nc(N[C@@H]3CCCC[C@@H]3N)cnc2C(N)=O)c1 | > 7.94 µM
Cc1ccccc1NC(=O)Nc1ccc(-c2coc3ncnc(N)c23)cc1 | 2.51 µM
Oc1cccc(-c2nc(N3CCOCC3)c3oc4ncccc4c3n2)c1 | > 7.94 µM
N#CCOc1ccc(Nc2nc(Nc3cccc(S(N)(=O)=O)c3)ncc2Br)cc1 | 0.398 µM
CCCOn1c2ccc(Cl)cc2c(=O)c2c(C)nn(C)c21 | > 10 µM
CNC(=O)C(C)n1cc(-c2cnc(N)c3c(-c4ccc(NC(=O)Nc5ccc(C)cc5)cc4)csc23)cn1 (centres undefined) | > 10 µM
NCCC(C(=O)Nc1ccc2[nH]ncc2c1)c1ccc(Cl)c(Cl)c1 (centres undefined) | 0.02 µM
O=c1c(NCCc2ccc(Oc3ccccc3)cc2)c(Nc2ccncc2)c1=O | > 10 µM
COc1cncc(/C=C/c2ccncc2)c1 | > 10 µM

SMILES | Ki
Cc1cc(C)c(C)c(OCCCc2c(C(=O)O)[nH]c3c(-c4ccccc4C)cccc23)c1 | > 10 µM
COCCO[C@H]1CC[C@H](n2nc(-c3ccc(Nc4nc5cc(C)cc(C)c5o4)cc3)c3c(N)ncnc32)CC1 | > 10 µM
Cc1cc(NC(=O)Cc2ccc(-c3cccc4[nH]nc(N)c34)cc2)ccc1F | 1.26 µM
COc1ccc(/C=C2/C(=O)ON=C2c2ccc(Br)cc2)cc1OC | > 10 µM
COc1cccc2c1Nc1cc(Nc3ccncc3)ccc1C(=O)N2 | > 10 µM
CCCS(=O)(=O)Nc1ccc(-c2ccc3[nH]nc(NC(=O)CC)c3c2)cc1 | 7.94 µM
O=C(Nc1n[nH]c2ccc(-c3cn(Cc4ccccc4)nn3)cc12)c1ccccc1 | 0.0631 µM
Cc1cccc(NC(=O)Cc2ccc(-c3cccc4[nH]nc(N)c34)cc2)c1 | 0.794 µM
O=c1c2c([nH]c3cc(-c4ccco4)nn13)CSC2 | > 10 µM
Cc1cccc(NC(=O)Nc2ccc(-c3ccc4nccnc4c3N)cc2)c1 | > 10 µM
Brc1ccc2c(c1)-c1[nH]ncc1C2 | > 10 µM
O=c1[nH]c2cc(-c3ccccc3)cnc2[nH]1 | > 10 µM
c1ccc(COc2ccc(Nc3ncnc4ccccc34)cc2)cc1 | > 10 µM
CN(c1ncccc1CNc1nc(Nc2ccc3c(c2)CC(=O)N3)ncc1C(F)(F)F)S(C)(=O)=O | 2.51 µM
Fc1ccc(-c2nc3cnccn3c2-c2ccnc(NCC3CC3)n2)cc1 | > 10 µM
Cc1cccc(NC(=O)Nc2ccc(-c3csc4c(C#CCNS(C)(=O)=O)cnc(N)c34)cc2)c1 | 10 µM
O=C1Nc2ccc3ncsc3c2/C1=C/Nc1ccc(S(=O)(=O)Nc2ccccn2)cc1 | 0.0158 µM
COCC(C)(C)CNc1nccc(-c2c(-c3ccc(F)cc3)nc3c(C)nccn23)n1 | > 10 µM
CCOC(=O)C1=C(N)n2c(s/c(=C\c3cccs3)c2=O)=C(C(N)=O)C1c1cccs1 (centres undefined) | > 10 µM
Cc1cc(C)cc(NC(=O)Nc2ccc(-c3cccc4snc(N)c34)cc2)c1 | > 10 µM
N[C@H](COc1cncc(/C=C/c2ccncc2)c1)Cc1ccccc1 | > 10 µM
C/C(=N/NC(=N)N)c1cc(NC(=O)NCCCCCCNC(=O)Nc2cc(/C(C)=N\NC(=N)N)cc(/C(C)=N/NC(=N)N)c2)cc(/C(C)=N/NC(=N)N)c1 | 3.16 µM
CCc1nccn2c(-c3ccnc(NCC(C)(C)O)n3)c(-c3ccc(F)cc3F)nc12 | > 10 µM
O=C(Nc1ccc(-c2cccc3sncc23)cc1)Nc1ccc(F)c(C(F)(F)F)c1 | > 10 µM

SMILES | Ki
O=C(Cc1ccccc1)Nc1cccc(-c2nc3sccn3c2-c2ccnc(Nc3cccc(N4CCOCC4)c3)n2)c1 | > 10 µM
O=c1[nH]c2sc3c(c2c2nc(-c4ccccc4)nn12)CCCC3 | > 10 µM
COCCN(C)C(=O)c1c(-c2ccc3[nH]ncc3c2)nnn1Cc1ccccc1 | 1.58 µM
O=c1c(NCc2ccccc2F)c(Nc2ccncc2)c1=O | 0.794 µM
Nc1ncnc2c1N=C(c1ccc(NC(=O)Nc3cc(C(F)(F)F)ccc3F)cc1)CCN2 | 2.51 µM
CC(C)S(=O)(=O)n1c(N)nc2ccc(-c3c(-c4ccc(F)cc4)nc4sccn34)cc21 | > 10 µM
Brc1cnc2[nH]cc(-c3ccccc3)c2c1 | 1.58 µM
N[C@H](COc1cncc(/C=C/c2ccncc2)c1)Cc1c[nH]c2ccccc12 | 7.94 µM
O=C(O)c1ccccc1Nc1ccnc(Nc2cccc(O)c2)n1 | 0.794 µM
CCN1CCN(CCCC(=O)Nc2n[nH]c3nnc(-c4cccc(F)c4F)cc23)CC1 | > 10 µM
Nc1nccc2scc(-c3ccc(NC(=O)Nc4ccccc4C(F)(F)F)cc3)c12 | > 10 µM
NC(=O)c1cc2c(-c3ccccc3)cncc2s1 | 5.01 µM
NCCNS(=O)(=O)c1cccc(C(=O)Nc2ccc(-c3n[nH]c(=O)c4ccccc34)cc2)c1 | > 10 µM
N#Cc1c(O)[nH]c(=O)c2c(=N)oc3ccc(Cl)cc3c12 | > 10 µM
CN1CC[C@H]1COc1cncc(CCc2ccncc2)c1 | > 10 µM
N[C@H]1CC[C@H](Nc2nccc(-c3c[nH]c4ncccc34)n2)CC1 | 0.0501 µM
c1cc2[nH]ncc2cc1-c1cn(CC2CCOCC2)nn1 | 7.94 µM
Cc1cccc(NC(=O)Nc2ccc(-c3csc4c(-c5cn[nH]c5)cnc(N)c34)cc2)c1 | > 10 µM
OCC(CO)Nc1ncnc2[nH]cc(-c3ccccc3)c12 | 7.94 µM
Nc1nccc(-c2c(-c3ccc(F)cc3)ncn2C2CCNCC2)n1 | 6.31 µM
O=C1NCCc2[nH]c(-c3ccnc(-c4cnc5ccccc5c4)c3)cc21 | > 10 µM
Cc1cccc(NC(=O)Nc2ccc(-c3csc4c(C#CCN(C)C)cnc(N)c34)cc2)c1 | 6.31 µM
NC(=O)c1sc2c(Br)ccc(Cl)c2c1N | 3.16 µM
O=C(N[C@H](CO)Cc1ccccc1)c1ccc(-c2ccncc2)cc1F | > 10 µM

Second part, the molecule after the results:

Ki | SMILES
> 10 µM | Cc1nccn2c(-c3ccnc(NCCC(C)(C)O)n3)c(-c3ccc(F)cc3F)nc12
> 10 µM | O=C(Nc1ccc2cn[nH]c2c1)c1ccc(Cl)cc1
> 10 µM | N#CC1=C(N)n2c(s/c(=C\c3ccco3)c2=O)=C(C(N)=O)C1c1ccco1 (centres undefined)
> 10 µM | Clc1csc2ncnc(Nc3ccccc3)c12
10 µM | COc1ccc(C(=O)Nc2cnc3[nH]cc(-c4ccccc4)c3c2)cc1
2 µM | NC(=O)c1cc2c(Oc3ccc(Br)cc3)cncc2s1
> 10 µM | CCOC(=O)c1cccc2[nH]c(-c3ccc(N4CCC(N)C4)cc3)nc12 (centres undefined)
> 10 µM | COc1cccc(NC(=O)c2cnn3c(-c4ccccc4)ccnc23)c1
> 10 µM | O=C(NCCCCCCNC(=O)NCc1cccnc1)NCc1cccnc1
0.0631 µM | Nc1n[nH]c2ccc(-c3nnn(Cc4ccccc4)c3I)cc12
> 10 µM | CN1CCN(c2cccc(Nc3nccc(-c4c(C(N)=O)nc5ccccn45)n3)c2)CC1
> 10 µM | Nc1ccc(-c2cncc(OC[C@@H](N)Cc3c[nH]c4ccccc34)c2)cc1C(=O)c1cccc(Cl)c1
> 10 µM | Cn1c2ccccc2c2c3c(c4c5ccccc5n(CCC#N)c4c21)CNC3=O
> 10 µM | CNC(=O)/C=C/c1cnc(N)c2c(-c3ccc4c(c3)OCO4)csc12
0.316 µM | Cc1n[nH]c2ccc(-c3cncc(OC[C@@H](N)Cc4cccc(OC(F)(F)F)c4)c3)cc12
2.51 µM | Cn1cc(/C=C2\C(=O)Nc3cccnc32)c2ccccc21
> 10 µM | COc1cc(Nc2nccc(Nc3cc(C4CCCCC4)no3)n2)cc(OC)c1OC
> 10 µM | Cc1ccc(-n2nc(C)c3c(=O)c4cc(Cl)ccc4n(O)c32)cc1
> 10 µM | NC(=O)C1CCCN(C(=O)c2cc(-c3ccc4[nH]ncc4c3)on2)C1 (centres undefined)

Ki | SMILES
> 10 µM | Cc1cccc(NC(=O)Nc2ccc(-c3csc4ccnc(N)c34)cc2)c1
7.94 µM | O=C(Nc1ccc2[nH]ncc2c1)c1ccc(Cl)cc1
2.51 µM | C[C@@H](O)Cn1cc(-c2cnc(N)c3c(-c4ccc(NC(=O)Nc5cccc(F)c5)cc4)csc23)cn1
> 7.94 µM | COc1cc(-c2ccc3c(c2)NC(=O)c2ccc(-c4ccccc4NS(C)(=O)=O)cc2N3)cc(OC)c1OC
0.0631 µM | Cc1n[nH]c2cnc(-c3cncc(OC[C@@H](N)Cc4cccc(C(F)(F)F)c4)c3)cc12
7.94 µM | NC(=O)c1cn(-c2ccc(O)cc2Cl)c2cc(-c3ccncc3)ccc2c1=O
> 10 µM | CC[C@@H]1C(=O)N(C)c2cnc(Nc3ccc(C(=O)NC4CCN(C)CC4)cc3OC)nc2N1C1CCCC1
3.98 µM | CCC(N)(C#Cc1cnc(N)c2c(-c3ccc(NC(=O)Nc4cccc(C)c4)cc3)csc12)CC
> 10 µM | CNc1ncnc2c1N=C(c1ccc(NC(=O)Nc3cccc(C(F)(F)F)c3)cc1)CCN2
> 10 µM | O=c1[nH]c2sccc2c2nc(-c3ccncc3)nn12
> 10 µM | O=C(Cc1ccc(Cl)cc1)Nc1[nH]nc2c1CCC2
> 10 µM | O=C(O)c1cc2c(-c3cccc(F)c3)cncc2s1
> 10 µM | Cc1c(-c2cccc(OCc3ccccc3)c2)c2c(N)ncnc2n1[C@H]1C[C@H](CN2CCCC2)C1
> 10 µM | C[C@@H](N)C1CCC(C(=O)Nc2ccncc2)CC1 (some centres undefined)
> 10 µM | COc1cc2cnc3c(c2cc1OC)C(=O)NC3=O
> 10 µM | Nc1nonc1-n1nnc(C(=O)N/N=C/c2cccs2)c1-c1cccs1
3.98 µM | O=C(NC(CO)c1cc(Cl)cc(Cl)c1)c1ccc(-c2ccncc2)cc1 (centres undefined)
0.398 µM | Clc1cc(-c2c[nH]c3ncccc23)cc(NCc2ccccc2)n1

Reference: the kinase profiling compilation of Christmann-Franck et al. (2016)
